Test results: US20260183301A1, “TREATING DISEASES AND DISORDERS WITH IRAK4-MODIFYING COMPOUNDS” (Curis, Inc., priority 2022, published 2026)
“Also recorded” adds a separate entry of the source.

How the values were obtained:
[1] = test system: Waldenstrom's macroglobulinemia (WM); test: Phase 1 dose-escalation study, WM patient case: serum IgM, m-protein and response; type: in vivo, human
From the text: The patient remained asymptomatic for over 4 years with a slow increase in m-protein and IgM during that time. By mid-2017 they started to experience increased fatigue. […] There was no evidence of CXCR4 genomic alteration. […] Several options were discussed including clinical trials and standard of care Bruton's tyrosine kinase inhibitor (BTKi) therapy.
Quantitative immunoglobulins and serum protein electrophoresis were obtained each cycle to determine response to treatment (FIG. 1).
The patient initiated treatment at the first dose level, 50 mg. […] Using a standard 3+3 design the subsequent dose level, 100 mg po BID, was cleared per protocol. […] They reported a significant improvement in their quality of life with resolution of fatigue and returned to a rigorous daily exercise program that they had been unable to perform for the last 2 years due to WM-related symptoms. […] Based on evolving safety data at higher dose levels, the patient was escalated to […] starting with cycle 20 in 1/2020.

[2] = test system: resistant or refractory, advanced NHL; test: Phase I dose escalation trial of oral monotherapy in NHL: tumor reduction; type: in vivo, human; conditions: all doses
Experimental: (§2) Seven dosing cohorts included 50 and 100 mg QD, and 50, 100, 200, 300, or 400 mg BID of daily continuous oral monotherapy in 21-Day cycles. Objective included safety and tolerance (primary), pk/pd and early efficacy (secondary), and biomarker correlations (exploratory). 31 patients with resistant or refractory, advanced NHL have been enrolled.

[3] = Oral pharmacokinetics in humans; type: in vivo, human
Experimental: as §2

[4] = test system: cytokine; test: Pharmacodynamic cytokine changes in Phase I NHL patients; type: in vivo, human
[5] = test system: NF-kB p-p50 S337; test: Western blot of NF-kB p-p50 S337 in OCL-LY10 cells; type: cell-based; conditions: 3 μM and 10 μM, 48 h, vs DMSO
Experimental: (§1) At 48 h post-treatment, cell lysates were obtained. Protein sample concentration was quantified and equal amount 20 μg of whole protein extract was loaded in each well of SDS-polyacrylamide gel. Cell extracts were separated by 10% SDS-PAGE, transferred to nitrocellulose membrane, and probed as indicated. The following antibodies were used for immunoblot analysis: NF-kB p-p50 S337 (Santa Cruz Biotechnology) and b-actin (Cell Signaling Technology).

[6] = test system: NF-kB p-p50 S337; test: Western blot of NF-kB p-p50 S337 in TF-1 (AML) cells; type: cell-based; conditions: 3 μM and 10 μM, 48 h, vs DMSO
Experimental: as §1

Cc1cc(-c2nc(C(=O)Nc3cc4oc(N5CCOCC5)nc4nc3N3CC[C@@H](O)C3)co2)ccn1 [Compound 1, emavusertib]
fatigue (baseline symptom) ([1]; WM patient, 200 mg po BID, by summer of 2019): completely resolved
dose dependence of response / tumor burden ([1]; human patient with intra-patient dose escalation): shrinking in a dose-dependent manner; also recorded: dose/response relationship; also recorded: dose-dependent objective response
evaluable patients with overall tumor burden decreases of ≥20% from baseline [2]: Eight of 28
accumulation ([3]; multiple daily single dose administration): Minimal to no accumulation
absorption ([3]; oral administration): rapidly absorbed
exposure versus dose ([3]; oral administration): dose-proportional increase in exposure
time of maximum plasma concentrations ([3]; oral administration, post dose): 0.5 to 8 h
accumulation ([3]; steady state, multiple twice daily dose administration): Moderate accumulation
pharmacodynamic changes in cytokines [4]: cytokine reductions
expression of NF-kB p-p50 S337 [5]: downregulated
expression of NF-kB p-p50 S337 [6]: downregulated
